Earlier results as cited in patent publication US20240024337A1, “INTERACTION OF SARS-COV-2 PROTEINS WITH MOLECULAR AND […] […] HOST CELLS AND FORMULATIONS TO TREAT COVID-19” (AKSEERA PHARMA CORP., priority 2020, published 2024).

Test system: HT22 hippocampal neurons
Conditions: 5 μM; oxygen-glucose deprivation

C=C(C)[C@@H]1CCC(C)=C[C@H]1c1c(O)cc(CCCCC)cc1O [Cannabidiol, 2-[(1R,6R)-3-Methyl-6-(1-methylethenyl)-2-cyclohexen-1-yl]-5-pentyl-1,3-benzenediol]
apoptosis and oxidative stress: significantly attenuated
